Patent US20170107207A1, “AMINOPYRAZOLONE DERIVATIVE” (DAIICHI SANKYO COMPANY, LIMITED, priority 2014, published 2017)

Key:
Format in all cases: cell-based
MV-4-11 = experiment: Cell growth inhibition test, MV-4-11; details: Homo sapiens, MV4-11, 72 h; MV-4-11, Leukemia, 3 days, CellTiter-Glo
Experimental: (§1) A cell growth inhibition test was carried out by treating a cultured cancer cell line with a test compound for a given period and then counting the number of viable cells by CellTiter-Glo Luminescent Cell Viability Assay (manufactured by Promega Corp.).
(§2) The following cells were inoculated to a 384-well plate containing the compound prepared in advance at predetermined concentrations. […]
(§3) The cells thus inoculated were cultured at 37° C. for 3 days under 5% CO2. […] Then, luminescence intensity was measured using a plate reader.
(§4) The number of viable cells and luminescence intensity have been confirmed to correlate with each other. Therefore, the rate of cell growth was calculated according to the following expression: Rate of cell growth (T/C %) of a test compound-supplemented well=100×[(B−C)/(A−C)] wherein A represents the luminescence intensity (final culture date) of a test compound-free well; B represents the luminescence intensity (final culture date) of a test compound-containing well; and C represents the luminescence intensity (day of cell inoculation) of a well at the start of contact of the cells with the test compound.
(§5) T/C % at the concentration of each of the serially diluted test compounds was determined. […]

HUH-7 = experiment: Cell growth inhibition test, HUH-7; details: Homo sapiens, 72 h; HUH-7, Liver cancer, 3 days, CellTiter-Glo
Experimental: as §1, §2, §3, §4, §5

[1] = system: human lymphoma cell line RAMOS cells; experiment: Cell growth inhibition test using RAMOS cell, ATP assay (CellTiter-Glo); details: Homo sapiens, Ramos, 72 h, cultured 3 days, 50% growth inhibition concentration
Procedure, shortened: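 RAMOS cells seeded at 4000 cells/well with compound and cultured 3 days at 37° C, 5% CO2; viability by CellTiter-Glo luminescence. Growth rate T/C % = 100×[(B−C)/(A−C)] using day-0 and final readings; GI50 interpolated from the two concentrations bracketing 50% growth.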

NCI-H1975 = experiment: Cell growth inhibition test, NCI-H1975; details: Homo sapiens, 72 h; NCI-H1975, Lung cancer, 3 days, CellTiter-Glo
Experimental: as §1, §2, §3, §4, §5

CALU-6 = experiment: Cell growth inhibition test, CALU-6; details: Homo sapiens, 72 h; CALU-6, Lung cancer, 3 days, CellTiter-Glo
Experimental: as §1, §2, §3, §4, §5

MOLT-4 = experiment: Cell growth inhibition test, MOLT-4; details: Homo sapiens, 72 h; MOLT-4, Leukemia, 3 days, CellTiter-Glo
Experimental: as §1, §2, §3, §4, §5

U-138 MG = experiment: Cell growth inhibition test, U-138 MG; details: Homo sapiens, U138-MG, 72 h, Brain tumor Central Nerve System, 3 days, CellTiter-Glo
Experimental: as §1, §2, §3, §4, §5

NCI-H460 = experiment: Cell growth inhibition test, NCI-H460; details: Homo sapiens, 72 h; NCI-H460, Lung cancer, 3 days, CellTiter-Glo
Experimental: as §1, §2, §3, §4, §5

RL952 = experiment: Cell growth inhibition test, RL952; details: Homo sapiens, RL95-2, 72 h; RL952, Endometrial cancer, 3 days, CellTiter-Glo
Experimental: as §1, §2, §3, §4, §5

BT-474 = experiment: Cell growth inhibition test, BT-474; details: Homo sapiens, 72 h; BT-474, Breast cancer, 3 days, CellTiter-Glo
Experimental: as §1, §2, §3, §4, §5

| GI50 (MV-4-11) [nM] | GI50 (HUH-7) [nM] | GI50 [1] [nM] | GI50 (NCI-H1975) [nM] | GI50 (CALU-6) [nM] | GI50 (MOLT-4) [nM] | GI50 (NCI-H460) [nM] | GI50 (BT-474) [nM] | SMILES | GI50 (U-138 MG) [nM] | GI50 (RL952) [nM] |
| --- | --- | --- | --- | --- | --- | --- | --- | --- | --- | --- |
| 210 | 670 | 140 | 490 | 430 | 130 | 310 | 1900 | CCOc1ccc(Cl)cc1C(=O)NCC(C)(C)CC(=O)Nc1c([C@H](C)CN(C)C)n(C)n(-c2ccccc2)c1=O [Example 68, 5-Chloro-N-[4-({5-[(1R)-2-(dimethylamino)-1-methylethyl]-1-methyl-3-oxo-2-phenyl-2,3-dihydro-1H-pyrazol-4-yl}amino)-2,2-dimethyl-4-oxobutyl]-2-ethoxybenzamide] | 670 | 530 |
| 490 | 900 | 310 | 900 | 780 | 180 | 730 | 5000 | CCOc1ncc(Cl)cc1C(=O)NCC(C)(C)CC(=O)Nc1c([C@H](C)CN(C)C)n(C)n(-c2ccccc2)c1=O [Example 73, 5-Chloro-N-[4-({5-[(1R)-2-(dimethylamino)-1-methylethyl]-1-methyl-3-oxo-2-phenyl-2,3-dihydro-1H-pyrazol-4-yl}amino)-2,2-dimethyl-4-oxobutyl]-2-ethoxypyridine-3-carboxamide] | 1000 | 890 |
| 400 | 360 | 130 | 810 | 680 | 160 | 550 | 25000 | CCOc1cc(F)c(Cl)cc1C(=O)NCC(C)(C)CC(=O)Nc1c(COC)n(C)n(-c2ccccc2)c1=O [Example 113, 5-Chloro-2-ethoxy-4-fluoro-N-(4-{[5-(methoxymethyl)-1-methyl-3-oxo-2-phenyl-2,3-dihydro-1H-pyrazol-4-yl]amino}-2,2-dimethyl-4-oxobutyl)benzamide] | 1000 | 870 |
